This note sets out measurements from US5763435A, “Sulfate conjugates of ursodeoxycholic acid, and their beneficial use in inflammatory disorders” (priority 1995, dated 1998).

In data set [1] the test system is Principal Bile Acids in Colon. Briefly: Bile acid composition of colon after oral administration (GC-MS). It counts as in vivo, Sprague-Dawley rats. Particulars: for Chenodeoxycholic acid mass in colon / Cholic acid mass in colon / Cholic acid percent of colonic bile acids / Deoxycholic acid mass in colon / Deoxycholic acid percent of colonic bile acids / Lithocholic acid mass in colon / Lithocholic acid percent of colonic bile acids / Total bile acid mass in colon / UDCA mass in colon / UDCA percent of colonic bile acids / Δ^22-UDCA percent of colonic bile acids / Δ^22-β-Muricholic acid mass in colon / Δ^22-ω-Muricholic acid mass in colon / α-Muricholic acid mass in colon / β-Muricholic acid mass in colon / ω-Muricholic acid mass in colon / Δ^22-UDCA mass in colon: oral gavage 250 mg/day, 4 days, mean ± SEM; for Change in colonic deoxycholic / lithocholic acid (in words): oral, vs control. As for the experimental part: (§1) Male Sprague-Dawley rats (Harlan Sprague-Dawley, Inc., Indianapolis, Ind.), weighing 210-290 g, were maintained on a 12-hour light-dark cycle and fed standard laboratory chow ad libitum for 3 days. The animals were then transferred to metabolic cages in which they were housed individually and fed the same diet. UDCA, UDCA 3-sulfate, UDCA 7-sulfate, and UDCA 3,7-disulfate were administered by gavage at a dose of 250 mg/day for 4 consecutive days. Each group comprised 3-6 rats. Body weights of the animals were measured each day. On day 5, the animals were killed by exsanguination under ether anesthesia. Plasma was collected and frozen at -20° C. The liver was removed, rinsed in normal saline, and flash-frozen in liquid nitrogen. Urine and feces were collected every 24 hours and frozen at -20° C. All animals received humane care in compliance with the "Guide for the Care and Use of Laboratory Animals" prepared by the National Academy of Sciences (National Institutes of Health publication no. 86-23, revised in 1985).
(§2) Intestinal contents were weighed and dissected into small pieces. In each group, feces (100 mg) from all animals were pooled on day 4 of the study and then ground into a fine paste. All samples were sonicated and sequentially refluxed in 80% methanol for 2 hours and chloroform/methanol (1:1) for 1 hour. Samples were taken to dryness, and the dried extracts were resuspended in 80% methanol (20 mL). Fractions of the methanolic extract (1/40 of intestinal contents and 1/20 of feces samples) were removed and the internal standard nordeoxycholic acid (10 μg) was added. This extract was diluted with 0.01 mol/L acetic acid (20 mL) and passed first through a column of Lipidex 1000 (bed size, 4×1 cm; Packard Instrument Co., Groningen, The Netherlands) and then through a Bond-Elut C18, cartridge (Analytichem, Harbor City, Calif.). Bile acids were recovered by elution of the Lipidex 1000 column and the Bond-Elut cartridge with methanol (20 mL and 5 mL, respectively), and the combined extracts were taken to dryness. Unconjugated bile acids were isolated and separated from neutral sterol and conjugated bile acids by lipophilic anion exchange chromatography on diethylaminohydroxypropyl Sephadex LH-20 (Lipidex-DEAP; Package Instrument Co.). Recovery of unconjugated bile acids was achieved by elution with 0.1 mol/L acetic acid in 72% ethanol (7 mL) followed by evaporation of the solvents. Total conjugated bile acids were recovered with 9 mL of 0.3 mol/L acetic acid in 72% ethanol, pH 9.6. Salts were removed by passage through a Bond-Elut C18 cartridge after addition of nordeoxycholic acid (10 μg), and conjugated bile acids were recovered by elution with 5 mL of methanol. Solvolysis was performed in a mixture of methanol (1 mL), distilled tetrahydrofuran (9 mL), and 1 mol/L trifluoracetic acid in dioxane (0.1 mL) and heated to 45° C for 2 hours. After solvolysis, unconjugated bile acids were isolated by chromatography on Lipidex-DEAP. Methyl ester derivatives were prepared by dissolving the sample in methanol (0.3 mL) and reacting with 2.7 mL of freshly distilled ethereal diazomethane. After evaporation of the reagents, the methyl ester derivatives were converted to trimethylsilyl ethers by the addition of […] of Tri-Sil reagent (Pierce Chemicals, Rockford, Ill.). A column of Lipidex 5000 (Packard Instrument Co.) was used to remove derivatizing reagents and to purify the sample.
(§3) GC-MS analysis was performed using a Finnigan 4635 mass spectrometer (Finnigan Inc., San Jose, Calif.) that housed an identical gas chromatography column operated under the same conditions. Electron ionization (70 eV) mass spectra were recorded over the mass range of 50-800 daltons by repetitive scanning of the eluting components. […]

In another data set the test system is fecal bile acids. Kind of data set: Fecal bile acid excretion after oral administration. It counts as in vivo, Sprague-Dawley rats. Conditions: for Total fecal bile acid excretion: pooled feces day 4; for Fecal lithocholate/deoxycholate ratio (in words) / Fecal lithocholic acid excretion (in words): vs control. As for the experimental part:
as §1, §2, §3

“Also recorded” adds a separate entry of the source.

`C[C@H](CCC(=O)O)[C@H]1CC[C@H]2[C@@H]3[C@@H](OS(=O)(=O)O)C[C@@H]4C[C@H](OS(=O)(=O)O)CC[C@]4(C)[C@H]3CC[C@]12C` [UDCA-DS, ursodeoxycholic acid 3,7-disulfate]: in data set [1], the “Chenodeoxycholic acid mass in colon” value is given as 0.07 mg, the “Cholic acid mass in colon” value is 0.23 mg, the “Cholic acid percent of colonic bile acids” value is listed as 26.3% and the “Deoxycholic acid mass in colon” value was found to be 0.31 mg. Further, in data set [1], the “Deoxycholic acid percent of colonic bile acids” value (“Deoxycholic acid percent” below) was 27.2%, the “Lithocholic acid mass in colon” value worked out at 0.02 mg, the “Lithocholic acid percent of colonic bile acids” value (“Lithocholic acid percent” for short) is given as 1.8% and the “Total bile acid mass in colon” value stood at 1.22 mg. Moreover, in data set [1], the “UDCA mass in colon” value stood at 0.20 mg, the “UDCA percent of colonic bile acids” value is recorded as 14.7%, the “Δ^22-UDCA percent of colonic bile acids” value came to 0% and the “Δ^22-β-Muricholic acid mass in colon” value is 0.01 mg. In data set [1], the “Δ^22-ω-Muricholic acid mass in colon” value was 0.06 mg, the “α-Muricholic acid mass in colon” value came to 0.03 mg, the “β-Muricholic acid mass in colon” value is 0.06 mg and the “ω-Muricholic acid mass in colon” value came to 0.24 mg. The “Change in colonic deoxycholic / lithocholic acid (in words)” value in data set [1] is “substantial reductions in the mass and proportion of both deoxycholic acid and lithocholic acid”. Moreover, in the data set with fecal bile acids, the “Fecal concentration of total UDCA (in words)” value was “markedly greater than that found in the feces of animals administered UDCA or UDCA 3-sulfate”, the “Form of UDCA excreted in feces” value was “excreted in feces virtually unchanged”, the “Total fecal bile acid excretion” value turned out to be 10.88 mg/g feces and the “Fecal lithocholate/deoxycholate ratio (in words)” value is recorded as “no change in the lithocholate/deoxycholate ratio”.

With `C[C@H](CCC(=O)O)[C@H]1CC[C@H]2[C@@H]3[C@@H](O)C[C@@H]4C[C@H](O)CC[C@]4(C)[C@H]3CC[C@]12C` [UDCA, 3 alpha, 7 beta-dihydroxy-5 beta-cholan-24oic acid, reference compound], in data set [1], the “Chenodeoxycholic acid mass in colon” value is listed as 0.05 mg, the “Cholic acid mass in colon” value was 0.24 mg, the “Cholic acid percent of colonic bile acids” value is 8.9% and the “Deoxycholic acid mass in colon” value stood at 0.31 mg. In addition, in data set [1], the “Deoxycholic acid percent” value is recorded as 10.4%, the “Lithocholic acid mass in colon” value came to 0.97 mg, the “Lithocholic acid percent” value was found to be 32.0% and the “Total bile acid mass in colon” value was 3.04 mg. Besides, in data set [1], the “UDCA mass in colon” value came out at 0.31 mg, the “UDCA percent of colonic bile acids” value is 8.3%, the “Δ^22-UDCA mass in colon” value amounted to 0.02 mg and the “Δ^22-UDCA percent of colonic bile acids” value is given as 0.4%. Besides, in data set [1], the “Δ^22-ω-Muricholic acid mass in colon” value is on record as 0.19 mg, the “α-Muricholic acid mass in colon” value is recorded as 0.01 mg, the “β-Muricholic acid mass in colon” value worked out at 0.13 mg and the “ω-Muricholic acid mass in colon” value was determined as 0.83 mg. For the same compound, the “Change in colonic deoxycholic / lithocholic acid (in words)” value in data set [1] is given as “decrease (P=0.003) in the proportion of deoxycholic acid”. In addition, in the data set on fecal bile acids, the “Fecal deoxycholic acid (in words)” value was “increase in deoxycholic acid in the feces”, the “Form of UDCA excreted in feces” value is listed as “almost exclusively found in the unconjugated form”, the “Increase of fecal lithocholic acid/deoxycholic acid ratio vs normal rat feces” value was “more than 20 fold” and the “Total fecal bile acid excretion” value turned out to be 14.85 mg/g feces. Also, in the data set with fecal bile acids, the “Fecal lithocholate/deoxycholate ratio (in words)” value is given as “markedly increased” and the “Fecal lithocholic acid excretion (in words)” value is “increased markedly from control values; also recorded: large increase in the fecal lithocholic acid concentration”.

In the case of `C[C@H](CCC(=O)O)[C@H]1CC[C@H]2[C@@H]3[C@@H](OS(=O)(=O)O)C[C@@H]4C[C@H](O)CC[C@]4(C)[C@H]3CC[C@]12C` [UDCA-7S, ursodeoxycholic acid 7-sulfate], in data set [1], the “Chenodeoxycholic acid mass in colon” value is 0.06 mg, the “Cholic acid mass in colon” value is given as 0.09 mg, the “Cholic acid percent of colonic bile acids” value is 2.5% and the “Deoxycholic acid mass in colon” value worked out at 0.36 mg. Besides, in data set [1], the “Deoxycholic acid percent” value turned out to be 11.4%, the “Lithocholic acid mass in colon” value is given as 0.04 mg, the “Lithocholic acid percent” value was found to be 1.3% and the “Total bile acid mass in colon” value is given as 2.98 mg. In data set [1], the “UDCA mass in colon” value worked out at 1.28 mg, the “UDCA percent of colonic bile acids” value is given as 44.0%, the “Δ^22-UDCA percent of colonic bile acids” value is on record as 0% and the “Δ^22-β-Muricholic acid mass in colon” value stood at 0.03 mg. In data set [1], the “Δ^22-ω-Muricholic acid mass in colon” value came to 0.15 mg, the “α-Muricholic acid mass in colon” value is recorded as 0.03 mg, the “β-Muricholic acid mass in colon” value was 0.06 mg and the “ω-Muricholic acid mass in colon” value was found to be 0.88 mg. In addition, the “Change in colonic deoxycholic / lithocholic acid (in words)” value in data set [1] was “substantial reductions in the mass and proportion of both deoxycholic acid and lithocholic acid”. Moreover, in the data set on fecal bile acids, the “Fecal concentration of total UDCA (in words)” value was “markedly greater than that found in the feces of animals administered UDCA or UDCA 3-sulfate”, the “Form of UDCA excreted in feces” value is given as “excreted in feces virtually unchanged”, the “Total fecal bile acid excretion” value stood at 12.65 mg/g feces and the “Fecal lithocholate/deoxycholate ratio (in words)” value is recorded as “no change in the lithocholate/deoxycholate ratio”.

For `C[C@H](CCC(=O)O)[C@H]1CC[C@H]2[C@@H]3[C@@H](O)C[C@@H]4C[C@H](OS(=O)(=O)O)CC[C@]4(C)[C@H]3CC[C@]12C` [UDCA-3S, ursodeoxycholic acid 3-sulfate], in data set [1], the “Chenodeoxycholic acid mass in colon” value is given as 0.06 mg, the “Cholic acid mass in colon” value turned out to be 0.44 mg, the “Cholic acid percent of colonic bile acids” value came out at 13.8% and the “Deoxycholic acid mass in colon” value is given as “.58 mg”. Also, in data set [1], the “Deoxycholic acid percent” value is 17.4%, the “Lithocholic acid mass in colon” value turned out to be 0.61 mg, the “Lithocholic acid percent” value is recorded as 18.4% and the “Total bile acid mass in colon” value is given as 4.07 mg. Moreover, in data set [1], the “UDCA mass in colon” value amounted to 0.05 mg, the “UDCA percent of colonic bile acids” value came to 1.5 ± 0.2%, the “Δ^22-UDCA mass in colon” value was 0.01 mg and the “Δ^22-UDCA percent of colonic bile acids” value came to 0.2 ± 0.1%. Further, in data set [1], the “Δ^22-β-Muricholic acid mass in colon” value was 0.01 mg, the “Δ^22-ω-Muricholic acid mass in colon” value is reported as 0.44 mg, the “α-Muricholic acid mass in colon” value was 0.02 mg and the “β-Muricholic acid mass in colon” value is reported as 0.20 mg. For the same compound, in data set [1], the “ω-Muricholic acid mass in colon” value worked out at 1.67 mg. In addition, in the data set on fecal bile acids, the “Increase of fecal lithocholic acid/deoxycholic acid ratio vs normal rat feces” value amounted to 11 fold, the “Total fecal bile acid excretion” value came out at 10.70 mg/g feces, the “Fecal lithocholate/deoxycholate ratio (in words)” value is “markedly increased” and the “Fecal lithocholic acid excretion (in words)” value is “large increase in the fecal lithocholic acid concentration”.
